Results as given in US20130283404A1, “EPIGENETICS IN AUTOIMMUNITY” (The Regents of the University of Michigan, priority 2012, published 2013).

Key:
PKCθ = biological target: T1, PKCθ (Homo sapiens, UniProt Q04759); test: PKCθ activation loop phosphorylation by immunoblot in PMA-stimulated CD4+ T cells; assay type: cell-based; settings: CD4+ T cells from healthy subjects, increasing ONOO− then PMA
T1 construct: Following stimulation, whole cell lysates were obtained; endogenous in cells; host or cells: primary CD4+ T cells from healthy donors

3-nitrotyrosine proteins = test: 3NO2-tyrosine protein derivative formation by immunoblot in CD4+ T cells; assay type: cell-based, human; settings: CD4+ T cells from a healthy donor, increasing ONOO− then PMA
Procedure: (§1) CD4+ T cells were suspended in RPMI 1640 supplemented with 10% fetal calf serum, 2 mM glutamine and penicillin/streptomycin then left unstimulated or stimulated with 50 ng/ml PMA for 15 min at 37° C. Treatment with peroxynitrite was performed at the concentrations and time specified in each experiment and before PMA stimulation. Following stimulation, whole cell lysates were obtained and protein content quantified using the BCA Protein Assay (Pierce, Rockford, Ill.).
(§2) Whole cell protein was fractionated by SDS-PAGE, transferred to nitrocellulose membranes (Schleicher and Schuell, Keene, N.H.) then stained with Ponceau S (Sigma) to verify equal protein loading between lanes. After incubation with the kinase specific antibody then the secondary antibody, protein bands were visualized by chemiluminescence (Amersham, Piscataway, N.J.). The bands on X-ray films were scanned and analyzed with ImageQuant 5.2 software (Amersham) for quantification. Where indicated, blots were stripped and re-probed with the corresponding antibody. Values were normalized to β-actin or the corresponding kinase as indicated.
Experiments were conducted during development of embodiments of the present invention to confirm the effect of ONOO^− by measuring 3NO2-tyrosine protein derivative formation. CD4+ T cells from a healthy donor were treated with increasing ONOO— concentrations then stimulated with PMA. […]

PKCδ [1] = biological target: T2, PKCδ (Homo sapiens, UniProt Q05655); test: PKCδ phosphorylation (p-T505, p-Y311) by immunoblot in PMA-stimulated CD4+ T cells; assay type: cell-based
T2 construct: Following stimulation, whole cell lysates were obtained; endogenous in cells; host or cells: primary CD4+ T cells from healthy donors or lupus patients
Procedure: Peripheral blood mononuclear cells were isolated from healthy donors or SLE patients by Ficoll-Hypaque density gradient centrifugation. CD4+ T cells were then purified by negative selection using magnetic beads (CD4+ T cell isolation kit; Miltenyi Biotec, Auburn, Calif.) as previously reported (Gorelik, 2007; herein incorporated by reference in its entirety).
as §1, §2
Experiments were performed during development of embodiments of the present invention to determine if ONOO^− causes the PKCδ T^505 phosphorylation defect observed in lupus T cells. CD4+ T cells from healthy subjects were treated with increasing concentrations of ONOO^− then stimulated with PMA.
The phosphorylation of Y^311 in the PKCδ molecule was also examined, because this amino acid is phosphorylated in cells undergoing oxidative stress (Steinberg, 2004; Kikkawa, 2002; herein incorporated by reference in their entireties). […] It is important to note that p-Y^311 is almost undetectable in resting CD4+ T cells (not shown) similar to p-T^505. […] While PMA promotes phosphorylation on T^505, Y^311 is almost insensitive. In contrast, ONOO^− increases Y311 phosphorylation with a concomitant decrease in p-T^505.

PKCδ [2] = biological target: T2, PKCδ; test: PKCδ nitration: anti-nitrotyrosine immunoprecipitation and immunoblot of CD4+ T cell lysates; assay type: cell-based; settings: control T cells treated with ONOO−
Procedure: Immunoprecipitations were performed according to the manufacturer's instructions. Lysates from normal or lupus T cells were incubated with the agarose-conjugated anti-nitrotyrosine antibody overnight at 4° C. Following centrifugation an aliquot of the supernatant (containing non-nitrated proteins) and the beads were resuspended in Laemmli sample buffer and boiled for 5 min. Proteins from each fraction were then analyzed in parallel by SDS-PAGE and immunoblot analysis.
Experiments were conducted during development of embodiments of the present invention to determine whether PKCδ is inactivated in T cells from patients with active lupus through nitration, similar to ONOO treated T cells. CD4+ T cells from 6 lupus patients with active disease (SLEDAI≧4) were stimulated with PMA and nitrated proteins immunoprecipitated from the lysates with anti-3NO2-Tyr antibodies. […] Total and T505 phosphorylated PKCδ content were then compared by immunoblotting.
Nitrated and non-nitrated PKCδ were analyzed as the total PKCδ content in the precipitate and supernatant respectively. The levels of total PKCδ (supernatant+immunoprecipitate) were similar in untreated or ONOO^− treated T cells from control donors and lupus patients (FIGS. 5 A and B). […]

ERK [3] = test: PMA-stimulated ERK phosphorylation by immunoblot in CD4+ T cells; assay type: cell-based, human; settings: CD4+ T cells from healthy controls, increasing ONOO− then PMA
Procedure: as §1, §2
This agrees with our previous results showing that PKCδ T505 phosphorylation is upstream of ERK (Gorelik, 2007; herein incorporated by reference in its entirety) and its impairment decreases ERK pathway signaling.

PKCα = PKCα activation loop phosphorylation by immunoblot in PMA-stimulated CD4+ T cells; assay type: cell-based, human; settings: CD4+ T cells from healthy subjects, increasing ONOO− then PMA
Dnmt1 = Dnmt1 mRNA by real time RT-PCR in spleens of double transgenic mice given dox; assay type: in vivo, mouse; settings: dox plus sucrose 2 weeks, spleen RNA
Procedure: (§3) Double transgenic mice were generated and maintained in a specific pathogen-free environment. All protocols were approved by the University of Michigan Committee on the Use and Care of Animals (UCUCA). Pups were weaned at 20 days of age and genotyped for the presence of both genes by PCR. Transgene expression was induced by giving 2 mg/ml of dox in the drinking water and supplemented with 5% of sucrose. Double transgenic control animals were given 5% sucrose alone. All the double transgenic mice were developmentally normal. Protein and blood in mouse urine was measured using Chemstrip 6 dipsticks (Roche, Madison, Wis.).
(§4) 150 ng of RNA was converted to cDNA and amplified in one step using a Quanti-Tect SYBR Green RT-PCR kit (Qiagen). CD70 transcripts were quantitated by real-time RT-PCR using a Rotor-Gene 3000 (Corbett Research, Sydney, Australia) and previously published protocols (Gorelik, 2007; herein incorporated by reference in its entirety). The amplification conditions were: 30 min at 50° C., 15 min at 95° C., 40 cycles of 15s at 94° C., 20s at 56° C. and 30s at 72° C. followed by a final extension at 72° for 5 min. Transcript expression levels were normalized to GAPDH. […]
Double transgenic mice were given dox plus sucrose or sucrose alone for 2 weeks. The mice were then sacrificed, RNA isolated from their spleens, then Dnmt1 mRNA levels were measured by real time RT-PCR. […]

ERK [4] = test: ERK phosphorylation in CD3+ splenic T cells of dnPKCδ/CD2-rtTA mice receiving dox; assay type: in vivo, mouse; settings: dox in drinking water two weeks, relative to sucrose controls
Procedure: as §3
20 μg of protein was diluted in Laemmli loading buffer and denatured by boiling for 5 min followed by electrophoresis in 10-12% SDS-polyacrylamide gels. The fractionated proteins were then electrophoretically transferred to nitrocellulose membranes (Schleicher and Schuell, Keene, N.H.) and stained with Ponceau S (Sigma) to verify equal loading. Membranes were blocked for 1 h in Tris-buffered saline (TBS) containing 0.1% Tween (Sigma) and 5% nonfat dry milk (Bio-Rad). […] For quantitative studies, the bands on X-ray films were scanned and analyzed with ImageQuant 5.2 software (Amersham). […]

dnPKCδ/CD2rtTA mice [5] = test: Serum IgG anti-dsDNA antibodies by ELISA in double transgenic mice given dox; assay type: in vivo, mouse; settings: dox in drinking water, serially over time, versus sucrose controls
Procedure: Serum anti-dsDNA IgG antibodies were measured by ELISA. Microtiter plates (Costar, Corning, N.Y.) were coated overnight at 4° C. with 10 μg plasmid dsDNA, then 5 μL of mouse sera were added to each well in 100 μl of buffer and incubated overnight at 4° C. Bound anti-dsDNA antibody was detected by chemiluminescence using HRP-goat anti-mouse IgG (Bethyl Lab Inc) at 450 nm in a spectrophotometer equipped with Softmax Pro software (Molecular Devices, Sunnyvale, Calif.). Murine monoclonal anti-dsDNA antibody (Chemicon) was used for the standard curve.
Experiments were conducted during the development of embodiments of the present invention to determine if the double transgenic develop anti-dsDNA antibodies when given dox. The double transgenic mice were given sucrose or sucrose plus dox in their drinking water, and IgG anti-dsDNA antibodies were measured serially over time by ELISA.

dnPKCδ/CD2rtTA mice [6] = test: Kidney histopathology in double transgenic dnPKCδ/CD2rtTA mice given Doxy; assay type: in vivo, mouse; settings: double transgenic dnPKCδ/CD2rtTA mice pretreated with Doxy
Procedure: Double transgenic dnPKCδ/CD2rtTA mice were given 4 mg/ml dox/5% sucrose in their drinking water for 20 wks. Double transgenic animals treated with 5% sucrose were used as controls. At indicated times, their kidneys and lungs were removed. Kidneys were divided in two, one half embedded in O.C.T. (Thermo Fisher) and frozen in liquid nitrogen while the other half and the lung were fixed in 10% formalin, paraffin embedded and stained with hematoxylin and eosin. Five micron sections were cut from the frozen tissue and fixed for 10 minutes in ice cold acetone. 10% horse serum/PBS was used to block non-specific sites and the sections were stained with a 1:50 dilution of biotin-Goat anti-mouse IgG (Fc specific) antibody (US Biologicals)/FITC-Streptavidin (BD Pharmingen) to detect IgG depositions.
Immunohistochemical staining noted IgG deposition along capillary walls and in the mesangial region of glomeruli from transgenic animals pretreated with Doxy (FIG. 11). It was also observed perivascular infiltration of leukocytes in glomeruli (FIG. 12), lungs (FIG. 13) and liver of transgenic animals pretreated with Doxy.

CD70 = CD70 mRNA in CD3+ T cells of dnPKCδ/CD2-rtTA mice with and without dox; assay type: in vivo, mouse; settings: dox 2 weeks, relative to controls
Procedure: as §3, §4

[7] = PMA stimulation, untreated (0 μM ONOO−) CD4+ T cells

T2 sequence (Q05655 whole entry): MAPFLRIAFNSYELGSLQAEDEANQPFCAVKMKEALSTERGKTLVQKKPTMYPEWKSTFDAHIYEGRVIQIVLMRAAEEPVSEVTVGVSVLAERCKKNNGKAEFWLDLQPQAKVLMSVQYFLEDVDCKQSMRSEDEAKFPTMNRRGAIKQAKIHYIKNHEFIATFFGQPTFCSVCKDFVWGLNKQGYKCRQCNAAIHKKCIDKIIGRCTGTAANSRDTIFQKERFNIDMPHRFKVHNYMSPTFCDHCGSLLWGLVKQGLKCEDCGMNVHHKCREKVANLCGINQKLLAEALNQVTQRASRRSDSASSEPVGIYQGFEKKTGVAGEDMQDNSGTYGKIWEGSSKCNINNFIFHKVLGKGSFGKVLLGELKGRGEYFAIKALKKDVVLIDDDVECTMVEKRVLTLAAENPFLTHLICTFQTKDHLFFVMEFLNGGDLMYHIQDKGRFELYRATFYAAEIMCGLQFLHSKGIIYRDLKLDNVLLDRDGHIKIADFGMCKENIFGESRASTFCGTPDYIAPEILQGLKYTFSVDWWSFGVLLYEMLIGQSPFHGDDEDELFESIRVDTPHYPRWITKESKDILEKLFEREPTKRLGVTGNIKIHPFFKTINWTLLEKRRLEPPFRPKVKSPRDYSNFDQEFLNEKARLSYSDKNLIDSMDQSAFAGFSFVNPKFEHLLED
T1 sequence (Q04759 whole entry): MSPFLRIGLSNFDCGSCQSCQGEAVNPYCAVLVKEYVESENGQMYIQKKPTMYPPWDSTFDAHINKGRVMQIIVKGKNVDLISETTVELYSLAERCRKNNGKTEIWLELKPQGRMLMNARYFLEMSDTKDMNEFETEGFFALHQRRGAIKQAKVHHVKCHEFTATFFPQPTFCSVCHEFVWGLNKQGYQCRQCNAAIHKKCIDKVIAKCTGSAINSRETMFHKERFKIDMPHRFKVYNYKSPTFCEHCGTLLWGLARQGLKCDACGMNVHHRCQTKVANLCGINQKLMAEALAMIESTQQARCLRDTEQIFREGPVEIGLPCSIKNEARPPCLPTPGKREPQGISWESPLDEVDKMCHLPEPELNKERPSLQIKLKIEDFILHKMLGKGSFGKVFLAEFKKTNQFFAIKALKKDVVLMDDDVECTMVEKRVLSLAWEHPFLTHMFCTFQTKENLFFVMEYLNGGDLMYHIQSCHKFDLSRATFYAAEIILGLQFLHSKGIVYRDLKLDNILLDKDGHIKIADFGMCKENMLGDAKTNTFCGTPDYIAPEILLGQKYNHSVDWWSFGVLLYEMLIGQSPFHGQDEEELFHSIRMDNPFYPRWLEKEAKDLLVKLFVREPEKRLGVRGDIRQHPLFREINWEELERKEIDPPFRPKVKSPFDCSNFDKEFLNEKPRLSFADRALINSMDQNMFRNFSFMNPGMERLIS

O=NOO [ONOO^−, peroxynitrite]
PKC θ activation loop phosphorylation (PKCθ): not appreciably affected
3-nitrotyrosine derivative formation (3-nitrotyrosine proteins): concentration-dependent increase
PKCδ T505 phosphorylation (PKCδ [1]; CD4+ T cells from healthy subjects, increasing ONOO− (20-80 μM, 15 min) then PMA): concentration dependent decrease
PKCδ Y311 phosphorylation (PKCδ [1]; PMA stimulated CD4+ T cells, increasing ONOO−): concentration-dependent increase
nitrated PKCδ fraction T505 phosphorylated after PMA stimulation (PKCδ [2]): 6%
PKCδ nitrated (PKCδ [2]; PMA stimulated): 74%
PMA-stimulated ERK phosphorylation (ERK [3]): declines
PKC α activation loop phosphorylation (PKCα): not appreciably affected

CCCCCCCCCCCCCC(=O)O[C@@H]1[C@@H](C)[C@@]2(O)[C@@H](C=C(CO)C[C@]3(O)C(=O)C(C)=C[C@@H]23)[C@@H]2C(C)(C)[C@]12OC(C)=O [PMA]
PKCδ T505 phosphorylation (PKCδ [1]; [7]): substantial increase
PKCδ Y311 phosphorylation (PKCδ [1]; [7]): no appreciable effect

C[C@H]1c2cccc(O)c2C(O)=C2C(=O)[C@]3(O)C(O)=C(C(N)=O)C(=O)[C@@H](N(C)C)[C@@H]3[C@@H](O)[C@@H]21 [dox, doxycycline]
decrease in Dnmt1 transcripts (Dnmt1): approximately 45%
ERK phosphorylation following PMA stimulation (ERK [4]): Reduced
IgG anti-dsDNA antibodies (dnPKCδ/CD2rtTA mice [5]): significantly higher levels
kidney histology (dnPKCδ/CD2rtTA mice [6]): evidence of glomerulonephritis
CD70 mRNA expression (CD70): significantly increased
